Experimental data: article PMC9186373, “Design, synthesis, and biological evaluation of novel carbazole derivatives as potent DNMT1 inhibitors with reasonable PK properties” (Journal of Enzyme Inhibition and Medicinal Chemistry, 2022)
Read-outs that look alike come from different tables or passages of the source.

Key:
EZH2 = experiment: Methylation inhibition assay (AlphaLisa), EZH2; type: biochemical; conditions: 50 µM; for inhibitory activity against EZH2: Figure 3; for Relative selectivity index of DNMT1 vs EZH2: 1 - selected enzyme inhibition/DNMT1 inhibition
Procedure: (§1) All the compounds were first screened using an ELISA EpiQuik DNA methyltransferase (DNMT) activity/inhibitor assay kit (Epigentek). To measure the effects of the compounds on human DNMT1 activity, 200 nM purified DNMT1 was incubated with 50 µM and 100 µM of the different compounds and S-adenosylmethionine in the DNMT assay buffer in the assay plate at 37 °C for 2 h[36]. Next, every sample was incubated with the capture and detection antibody, followed by incubation with developer solution for 10 min at room temperature. The absorbance was measured at 450 nm using a POLARstar Omega microplate reader (BMG). S-Adenosylhomocysteine (AdoHcy) was used as a positive control. Methylation inhibition assays for EZH2, LSD, and G9a were performed in modified Tris, pH 9.0, buffer using AlphaLisa technology. An amount of 10 µL of the reaction system contained a corresponding concentration of SAM (Sigma) (EZH2 50 µM, LSD 50 µM, and G9a 50 µM), which was the Km value in each enzymatic reaction, plus 100 nM biotinylated peptide H3 (1–21) (synthesis by GLChina) and the relevant enzyme concentration (0.03 nM EZH2, 0.03 nM LSD, and 0.03 nM G9a). The proteins were preincubated with various compound concentrations for 15 min at room temperature before the substrate and SAM were added. After 60 min of incubation at room temperature, acceptor and donor AlphaLisa beads were added according to the manufacturer’s recommendations. The signals were read in Alpha mode with an EnSpire multimode plate reader (PerkinElmer). IC50 values were derived by fitting the data for the inhibition percentage to a dose-response curve by non-linear regression in GraphPad Prism 5.0[20].
(§2) In addition to DNMT1, there are many other methyltransferases that can bind with S-adenosyl-L-methionine (SAM) to facilitate transmethylation reactions[24]^,[25]. To investigate the selectivity of these potent compounds for DNMT1, we then evaluated the inhibitory activities against DNMT1 and other important methyltransferases at the concentration of 50 µM, including DNMT3A/3L, DNMT3B/3L, and other SAM-dependent enzymes[1]^,[2]^,[26], such as EZH2[27], LSD1[28], G9a (histone H3 lysine 9 methyltransferase)[29].
(§3) 493 Relative selectivity index
(§4) 494 Relative selectivity index of DNMT1 is calculated by formula: DNMT1-selectivity
(§5) 495 index =1 - selected enzyme inhibition/DNMT1 inhibition. The closer
(§6) 496 that this value is to 1 or even more than 1, the better DNMT1-selectivity the of the
(§7) 498 Table S1. Relative selectivity index of DNMT1
Cpd. […]

[1] = system: A549 (human lung cancer cells); experiment: MTT assay, A549; type: cell-based
Procedure: (§8) The human lung cancer cells (A549) and human colon cancer cells (HCT116) were cultured in an RPMI-1640 medium containing 10% FBS, 100 U/mL streptomycin, and 100 U/mL penicillin at 37 °C in a humidified atmosphere with 5% CO2. All compounds were dissolved in DMSO and stock solutions were stored at −20 °C. Reagents were freshly diluted to the marked concentrations with a culture medium before use. DMSO concentration in experimental conditions never exceeded 0.1% (v/v). All cell lines were provided by the cell laboratory, School of pharmaceutical sciences, Guangzhou Medical University.
(§9) Cell viability was detected using an MTT assay kit. Cells were seeded into 96-well plates at a density of ∼1.0 × 10^4/well. 24 h later, sextuplicate wells were treated with media and new compounds at a fixed concentration (50 µM). After 24, 48, and 72 h, the drug-containing medium was replaced by a 100 µL fresh medium with 5 mg/mL MTT solution. After 4 h of incubation, the medium with MTT was removed, and 100 µL of DMSO was added to each well. The plates were gently agitated until the purple formazan crystals were dissolved, and the OD490 was determined using a […] (Olympus BX53, Japan). The data were calculated and plotted as the percent viability compared to the control.

LSD1 = experiment: Methylation inhibition assay (AlphaLisa), LSD1; type: biochemical; conditions: 1 - selected enzyme inhibition/DNMT1 inhibition; 50 µM
Procedure: as §1, §2, §3, §4, §5, §6, §7
Cpd. […]

[2] = system: HCT116 (human colon cancer cells); experiment: MTT assay, HCT116; type: cell-based
Procedure: as §8, §9

DNMT1 = DNMT1 (Homo sapiens, UniProt P26358); experiment: H3-labelled radioactive methylation assay; type: biochemical; conditions: H3-labeled radioactive methylation assay; 40 nM DNMT1
Outline: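 DNMT1 (40 nM) was preincubated with a compound range for 15 min at room temperature, then given 0.1 µM ^3H-SAM and 0.25 µg/mL poly(dI-dC)·poly(dI-dC) in 50 mM Tris-HCl pH 8.0, 1 mM DTT, 5% glycerol, 100 µg/mL BSA. After 60 min at 37 °C, filter-bound radioactivity was counted by scintillation. IC50 was taken from a non-linear dose-response fit.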

DNMT3A/3L = experiment: Methyltransferase enzymatic selectivity profiling, DNMT3A/3L; type: biochemical; conditions: 1 - selected enzyme inhibition/DNMT1 inhibition; 50 µM
Procedure: as §2
Here, the selectivity of non-nucleoside DNMT1 inhibitors is somewhat predictable because other methyltransferases mentioned above catalyse different substrates and share very low homology with DNMT1, even in their catalytic domain[30–32]. Subsequently, the screened compounds were evaluated in a dose-dependent assay against HCT116 (human colon cancer cell line) and A549 (human lung carcinoma cell line).
as §3, §4, §5, §6, §7
Cpd. […]

human DNMT1 = experiment: ELISA EpiQuik DNA methyltransferase (DNMT) activity/inhibitor assay; type: biochemical; conditions: 200 nM purified DNMT1, EpiQuik kit; for Inh% at 50 μM: 50 μM compound; for Inh% at 100 μM: 100 μM compound
Outline: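 Purified human DNMT1 (200 nM) was incubated 2 h at 37 °C with SAM and compound at 50 µM and 100 µM. Methylation was detected by antibody-based ELISA read at 450 nm.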

[3] = system: G9a (histone H3 lysine 9 methyltransferase); experiment: Methylation inhibition assay (AlphaLisa), G9a; type: biochemical; conditions: 50 µM; for inhibitory activity against G9a: Figure 3; for Relative selectivity index of DNMT1 vs G9a: 1 - selected enzyme inhibition/DNMT1 inhibition
Procedure: as §1, §2, §3, §4, §5, §6, §7
Cpd. […]

[4] = 24 h, read-out: Inh % at 50 μM, A549, 24 h
[5] = 48 h, read-out: Inh % at 50 μM, A549, 48 h
[6] = 72 h, read-out: Inh % at 50 μM, A549, 72 h
[7] = HCT-116, 24 h, read-out: Inh % at 50 μM, HCT116, 24 h
[8] = HCT-116, 48 h, read-out: Inh % at 50 μM, HCT116, 48 h
[9] = HCT-116, 72 h, read-out: Inh % at 50 μM, HCT116, 72 h

Chain of DNMT1 (P26358 whole entry): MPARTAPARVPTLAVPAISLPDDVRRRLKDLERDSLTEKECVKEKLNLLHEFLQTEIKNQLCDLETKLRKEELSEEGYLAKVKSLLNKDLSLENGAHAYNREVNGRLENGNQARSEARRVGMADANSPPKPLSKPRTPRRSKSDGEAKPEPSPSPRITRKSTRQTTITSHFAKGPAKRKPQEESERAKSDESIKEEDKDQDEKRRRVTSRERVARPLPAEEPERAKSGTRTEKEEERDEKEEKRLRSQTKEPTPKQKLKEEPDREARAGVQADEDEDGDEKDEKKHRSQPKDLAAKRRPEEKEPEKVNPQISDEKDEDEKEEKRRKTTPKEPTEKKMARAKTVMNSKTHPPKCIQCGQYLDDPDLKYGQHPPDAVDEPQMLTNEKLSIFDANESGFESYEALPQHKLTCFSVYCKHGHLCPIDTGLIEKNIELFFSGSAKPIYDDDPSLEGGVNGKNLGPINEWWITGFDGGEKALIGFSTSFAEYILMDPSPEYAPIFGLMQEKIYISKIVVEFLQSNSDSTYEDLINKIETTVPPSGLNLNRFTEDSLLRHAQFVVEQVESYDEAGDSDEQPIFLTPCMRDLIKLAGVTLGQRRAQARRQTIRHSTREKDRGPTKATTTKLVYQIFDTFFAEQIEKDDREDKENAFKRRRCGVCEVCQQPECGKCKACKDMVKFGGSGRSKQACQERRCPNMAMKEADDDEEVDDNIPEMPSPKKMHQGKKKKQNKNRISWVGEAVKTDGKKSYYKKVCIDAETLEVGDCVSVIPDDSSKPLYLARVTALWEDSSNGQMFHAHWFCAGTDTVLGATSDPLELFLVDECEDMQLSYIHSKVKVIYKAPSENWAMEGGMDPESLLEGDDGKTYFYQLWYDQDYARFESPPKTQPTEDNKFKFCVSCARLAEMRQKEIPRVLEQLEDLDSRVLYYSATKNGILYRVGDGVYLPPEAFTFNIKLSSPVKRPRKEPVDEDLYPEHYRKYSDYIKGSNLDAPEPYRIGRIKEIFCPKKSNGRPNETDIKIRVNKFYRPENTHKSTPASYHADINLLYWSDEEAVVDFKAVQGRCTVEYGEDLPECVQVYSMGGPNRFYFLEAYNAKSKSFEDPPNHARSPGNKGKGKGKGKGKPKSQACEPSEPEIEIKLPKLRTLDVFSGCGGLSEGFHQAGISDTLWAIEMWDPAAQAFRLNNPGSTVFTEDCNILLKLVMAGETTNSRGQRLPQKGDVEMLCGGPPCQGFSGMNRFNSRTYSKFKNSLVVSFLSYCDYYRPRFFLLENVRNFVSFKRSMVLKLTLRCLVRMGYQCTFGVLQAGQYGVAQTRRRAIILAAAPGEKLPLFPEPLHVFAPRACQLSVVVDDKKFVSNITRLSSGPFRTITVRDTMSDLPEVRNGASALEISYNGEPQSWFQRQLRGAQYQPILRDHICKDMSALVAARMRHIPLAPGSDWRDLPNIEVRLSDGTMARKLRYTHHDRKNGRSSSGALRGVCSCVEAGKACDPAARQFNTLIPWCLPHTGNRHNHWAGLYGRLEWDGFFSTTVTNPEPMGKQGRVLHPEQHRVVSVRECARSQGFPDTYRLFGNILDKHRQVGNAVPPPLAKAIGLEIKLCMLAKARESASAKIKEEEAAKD

IC50 (DNMT1) | Relative selectivity index of DNMT1 vs DNMT 3A/3L (DNMT3A/3L) | Inh% at 50 μM (human DNMT1) | Inh% at 100 μM (human DNMT1) | inhibitory activity against G9a [3] | Relative selectivity index of DNMT1 vs G9a [3] | SMILES | inhibitory activity against EZH2 (EZH2) | Relative selectivity index of DNMT1 vs EZH2 (EZH2) | inhibition at 50 µM [1, 4] | inhibition at 50 µM [1, 5] | inhibition at 50 µM [1, 6] | Relative selectivity index of DNMT1 vs LSD1 (LSD1) | inhibition at 50 µM [2, 7] | inhibition at 50 µM [2, 8] | inhibition at 50 µM [2, 9]
4.9 µM | 0.04 | 99% | 100% | nearly no inhibitory activities | 0.9 | CC(C)NCC(O)COC(Cn1c2ccc(F)cc2c2cc(F)ccc21)Cn1c2ccc(F)cc2c2cc(F)ccc21 (stereo not drawn) [WK-22, 1-((1,3-Bis(3,6-difluoro-9H-carbazol-9-yl)propan-2-yl)oxy)-3-(isopropylamino)propan-2-ol] | nearly no inhibitory activities | 0.96 | 64.3% | 98% | 95.7% | 0.02 | 77.6% | 91.8% | 97.4%
5 µM | 0.06 | 99% | 100% | nearly no inhibitory activities | 0.89 | CC(C)NCC(O)COC(Cn1c2ccccc2c2cc(F)ccc21)Cn1c2ccccc2c2cc(F)ccc21 (stereo not drawn) [WK-23, 1-((1,3-bis(3-fluoro-9H-carbazol-9-yl)propan-2-yl)oxy)-3-(isopropylamino)propan-2-ol] | nearly no inhibitory activities | 0.85 | 75.9% | 58.1% | 93.6% | 0.2 | 87.7% | 92.9% | 97.5%
